{"source": "paper PMC6273487", "about": "“Characterisation of the Broadly-Specific O-Methyl-transferase JerF from the Late Stages of Jerangolid Biosynthesis” (Molecules, 2016)", "molecular_target": "T1, JerF (Sorangium cellulosum, UniProt A1YBT9)", "T1 construct": "codon-optimised full-length gene in pCOLD-I, N-terminal His6 tag, expressed in E. coli BL21 (DE3), cell-free extract (not purified)", "T1 sequence (A1YBT9 entry or part of it)": "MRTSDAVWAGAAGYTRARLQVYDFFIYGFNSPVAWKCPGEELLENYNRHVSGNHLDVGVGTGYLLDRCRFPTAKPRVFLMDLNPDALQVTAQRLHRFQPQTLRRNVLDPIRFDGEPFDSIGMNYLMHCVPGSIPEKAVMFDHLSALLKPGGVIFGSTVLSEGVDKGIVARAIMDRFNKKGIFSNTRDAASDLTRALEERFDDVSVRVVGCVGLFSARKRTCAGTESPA", "assay": "HPLC-MS of O-methylated product after bioconversion with cell-free extract", "format": "biochemical", "settings": "5 mM MgCl2, 0.25 mM substrate"}
{"molecule": "C/C=C/C1CC(=O)C(C)C(=O)O1", "note": "(racemic) [rac-14d, (E)-3-Methyl-6-(prop-1-en-1-yl)dihydro-2H-pyran-2,4(3H)-dione]", "values": [{"measurement": "HPLC-MS of O-methylated product after bioconversion with cell-free extract", "setting": "SAM tosylate 0.97 mM, 40 mM Tris HCl, pH 8.8, 28 °C, 16 h, empty-vector and heat-denatured lysate controls run", "result": "rac-14d was almost completely converted into the respective O-methylated product mixture rac-15d"}]}
{"molecule": "CC(C)/C=C/C1CC(=O)C(C)C(=O)O1", "note": "(racemic) [rac-14e, (E)-3-Methyl-6-(3-methylbut-1-en-1-yl)dihydro-2H-pyran-2,4(3H)-dione]", "values": [{"measurement": "HPLC-MS of O-methylated product after bioconversion with cell-free extract", "setting": "SAM tosylate 4.18 mM, 25 mM HEPES, pH 7.5, 28 °C, 20 h", "result": "Full conversion was reproducibly obtained for compounds rac-14b, rac-14c, rac-14e and rac-14f"}]}
